According to article PMC8421423, “Cellular model system to dissect the isoform-selectivity of Akt inhibitors” (Nature Communications, 2021):
Values joined by “and” are separate entries in the source; they are usually repeats but may differ in a detail not shown here. Equal values may be shown once. Read-outs that look alike come from different tables or passages of the source.

Assays:
Akt2 = Akt2 (Homo sapiens, UniProt P31751); experiment: Cellular thermal shift assay (CETSA) in PANC1 cells; type: cell-based; set-up: purchased Thermo Fisher Scientific #PV3184; settings: CETSA PANC1, 1 µM
Description: (§1) Cells were seeded into 100 mm tissue culture plates (Sarstedt) (PANC1: 10^6 cells). After 24 h incubation, cells were treated with 1 µM of inhibitors or DMSO and were incubated for 4.5 h. Cells were washed twice with ice-cold PBS and then suspended in 1 mL PBS. Cells were collected and separated into equal volumes (100 µL). The aliquots were treated individually with different temperatures for 3 min, followed by a 3 min incubation at room temperature. Cell lysis was initiated by adding 100 µL RIPA buffer and 2 freeze-thaw cycles in liquid nitrogen. The lysates were centrifuged at 21,130×g for 20 min at room temperature. The supernatants were transferred into fresh, pre-cooled microcentrifuge tubes, and analyzed by western blot analysis as described above.

Ba/F3^myr-Akt3 cells = experiment: CellTiter-Glo cell viability assay; settings: for cell viability: CTG
Akt3 = Akt3 (Homo sapiens, UniProt Q9Y243); experiment: Cellular thermal shift assay (CETSA) in PANC1 cells; type: cell-based; set-up: purchased ProQinase #1578-0000-1
Description: as §1

Akt1 = Akt1 (Homo sapiens, UniProt P31749); experiment: STK HTRF KinEASE activity-based assay (IC50)
Description: The biochemical half maximal inhibitory concentrations (IC50) were determined with the STK HTRF KinEASE assay (Cisbio) according to the manufactor’s instructions. Briefly: 5 µL Kinase solution and 2.5 µL inhibitor solution (8% DMSO in HTRF buffer) were incubated for 1 h before the reaction was started by addition of 2.5 µL starting solution containing ATP and substrate peptide. […] After reaction completion (Akt1: 60 min, Akt2: 20 min, Akt3: 15 min), 10 µL of stop solution were added. […] The quotient of both intensities were recorded at eight different inhibitor concentrations and data fit to a Hill 4-parameter equation with Quattro software suite (Quattro Research GmbH, Martinsried, Germany). Each reaction was performed in duplicates and at least three independent determinations of each IC50 were made.

[1] = CellTiter-Glo cell viability assay; type: cell-based, murine; settings: mouse, parental Ba/F3 cells, CTG, parental, single replicates
parental Ba/F3 cells = experiment: CellTiter-Glo cell viability assay; type: cell-based, murine; settings: for cell viability: CTG, parental
Ba/F3^myr-Akt1 cells = experiment: CellTiter-Glo cell viability assay; settings: for cell viability: CTG
Description: On day 0, cells were plated into white 384-well cell culture plates (Greiner Bio-One) using a Multidrop reagent dispenser (Thermo Fisher Scientific) at cell numbers that ensure linear and optimal luminescent signal intensity (Ba/F3myr-Akt1: 600 cells/well, Ba/F3myr-Akt2: 800 cells/well, Ba/F3myr-Akt3: 800 cells/well). […] Cell viability was analyzed on day 4 using the CellTiter-Glo Assay (Promega) as per the manufacturer’s instructions. […] All experimental points were measured in duplicates for each plate and were replicated in at least three plates.

[2] = cell viability assay Ba/F3 myr-Akt cells, log units

Akt2, sequence (P31751 whole entry): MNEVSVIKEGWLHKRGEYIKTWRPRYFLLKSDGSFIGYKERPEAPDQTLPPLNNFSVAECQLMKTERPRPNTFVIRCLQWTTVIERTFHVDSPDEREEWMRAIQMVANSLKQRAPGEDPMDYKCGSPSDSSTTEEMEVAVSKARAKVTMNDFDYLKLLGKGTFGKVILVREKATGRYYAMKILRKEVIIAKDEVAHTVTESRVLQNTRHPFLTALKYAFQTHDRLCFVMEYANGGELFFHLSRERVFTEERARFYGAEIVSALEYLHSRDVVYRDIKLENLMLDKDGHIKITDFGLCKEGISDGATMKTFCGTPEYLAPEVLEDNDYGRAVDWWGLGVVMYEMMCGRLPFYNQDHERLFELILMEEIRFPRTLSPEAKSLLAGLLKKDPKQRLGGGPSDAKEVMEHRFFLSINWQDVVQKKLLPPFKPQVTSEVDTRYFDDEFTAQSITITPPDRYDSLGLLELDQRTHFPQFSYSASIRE
Akt3, sequence (Q9Y243 whole entry): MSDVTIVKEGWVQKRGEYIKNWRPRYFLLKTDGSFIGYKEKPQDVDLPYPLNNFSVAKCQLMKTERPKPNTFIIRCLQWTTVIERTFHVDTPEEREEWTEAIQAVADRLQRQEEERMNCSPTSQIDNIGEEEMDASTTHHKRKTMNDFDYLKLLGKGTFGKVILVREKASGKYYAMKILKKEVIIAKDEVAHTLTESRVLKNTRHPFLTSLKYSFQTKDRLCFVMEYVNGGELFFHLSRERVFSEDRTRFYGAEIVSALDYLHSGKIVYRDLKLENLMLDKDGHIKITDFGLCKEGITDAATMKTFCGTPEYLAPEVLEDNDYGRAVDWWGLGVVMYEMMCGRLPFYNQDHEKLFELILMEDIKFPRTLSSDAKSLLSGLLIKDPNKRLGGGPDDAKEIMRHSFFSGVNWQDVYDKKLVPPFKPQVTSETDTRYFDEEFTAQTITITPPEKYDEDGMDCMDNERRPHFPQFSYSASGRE
Akt1, sequence (P31749 whole entry): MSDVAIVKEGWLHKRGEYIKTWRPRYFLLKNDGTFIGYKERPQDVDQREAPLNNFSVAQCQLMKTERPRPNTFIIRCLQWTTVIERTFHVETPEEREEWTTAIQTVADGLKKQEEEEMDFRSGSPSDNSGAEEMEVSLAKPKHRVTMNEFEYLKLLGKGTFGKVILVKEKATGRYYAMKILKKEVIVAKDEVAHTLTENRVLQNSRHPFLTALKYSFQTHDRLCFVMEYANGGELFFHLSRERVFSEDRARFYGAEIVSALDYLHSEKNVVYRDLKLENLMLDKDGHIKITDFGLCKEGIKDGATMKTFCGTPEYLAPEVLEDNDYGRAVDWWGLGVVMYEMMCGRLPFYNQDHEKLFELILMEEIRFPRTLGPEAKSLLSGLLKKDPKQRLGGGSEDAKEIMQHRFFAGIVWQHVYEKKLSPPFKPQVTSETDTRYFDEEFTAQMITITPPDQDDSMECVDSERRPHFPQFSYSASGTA

C=CC(=O)Nc1ccc2[nH]c(=O)n(C3CCN(Cc4ccc(-c5ncccc5-c5ccccc5)cc4)CC3)c2c1 [compound 1]
tAkt2 % (Akt2; temperature 58.1): 70.90%
tAkt2 % (Akt2; temperature 61.4): 3.44%
tAkt2 % (Akt2; temperature 65.6): 7.92%
tAkt2 % (Akt2; temperature 70.9): -2.39%
tAkt2 % (Akt2; temperature 76): 37.12%
tAkt2 % (Akt2; temperature 79.9): 0.00%
cell viability (Ba/F3^myr-Akt3 cells; myr-Akt3, 0.1 nM, single replicates, 0.0001 µM): 105.8 % of control and 97.9 % of control
cell viability (Ba/F3^myr-Akt3 cells; myr-Akt3, 5000 nM, single replicates, 5 µM): 61.6 % of control and 92.9 % of control and 84.6 % of control
EC50 (Ba/F3^myr-Akt3 cells; Mus musculus, read-out: CTG BaF3myr-Akt3, Mean, mean of replicates): > 30 µM
EC50 (Ba/F3^myr-Akt3 cells; Mus musculus, read-out: CTG BaF3myr-Akt3, individual determinations, single replicates): > 30 µM
EC50 (Ba/F3^myr-Akt3 cells; Mus musculus, read-out: EC50 BaF3myr-Akt3, CTG): > 30 µM
viability at 0.0001 µM (Ba/F3^myr-Akt3 cells; Mus musculus, read-out: cell viability, CTG, myr-Akt3, 0.1 nM, single replicates): 103%
Log ratio EC50 [Akt] / EC50 [Akt], Akt3 / Akt2 (Ba/F3^myr-Akt3 cells; [2]): -0.83
EC50 (Ba/F3^myr-Akt3 cells; read-out: CTG BaF3myr-Akt3, individual determinations, single replicates): > 30 µM
tAkt3 % (Akt3; CETSA PANC1, 0.3 µM, temperature 39.9): 100.00%
tAkt3 % (Akt3; CETSA PANC1, 0.3 µM, temperature 43.5): 53.46%
tAkt3 % (Akt3; CETSA PANC1, 0.3 µM, temperature 48.4): 48.12%
tAkt3 % (Akt3; CETSA PANC1, 0.3 µM, temperature 53.8): 46.68%
tAkt3 % (Akt3; CETSA PANC1, 0.3 µM, temperature 58.1): 22.77%
tAkt3 % (Akt3; CETSA PANC1, 0.3 µM, temperature 61.4): 21.02%
tAkt3 % (Akt3; CETSA PANC1, 0.3 µM, temperature 65.6): 20.86%
tAkt3 % (Akt3; CETSA PANC1, 0.3 µM, temperature 70.9): 9.30%
tAkt3 % (Akt3; CETSA PANC1, 0.3 µM, temperature 76): 7.63%
tAkt3 % (Akt3; CETSA PANC1, 0.3 µM, temperature 79.9): 0.00%
tAkt3 % (Akt3; CETSA PANC1, 1 µM, temperature 39.9): 100.00%
tAkt3 % (Akt3; CETSA PANC1, 1 µM, temperature 43.5): 12.48%
tAkt3 % (Akt3; CETSA PANC1, 1 µM, temperature 48.4): 11.45%
tAkt3 % (Akt3; CETSA PANC1, 1 µM, temperature 53.8): 15.32%
tAkt3 % (Akt3; CETSA PANC1, 1 µM, temperature 58.1): 13.90%
tAkt3 % (Akt3; CETSA PANC1, 1 µM, temperature 61.4): 14.16%
tAkt3 % (Akt3; CETSA PANC1, 1 µM, temperature 65.6): 2.70%
tAkt3 % (Akt3; CETSA PANC1, 1 µM, temperature 70.9): 0.26%
tAkt3 % (Akt3; CETSA PANC1, 1 µM, temperature 76): 0.00%
tAkt3 % (Akt3; CETSA PANC1, 1 µM, temperature 79.9): 0.00%
IC50 (Akt1; HTRF IC50 Akt1, individual determinations, single replicates): 0.0439 µM and 0.0722 µM and 0.0428 µM
IC50 (Akt1; IC50 Akt1, HTRF, ATP at KM, 1 h preincubation): 0.053 ± 0.013 µM
Log ratio IC50 [Akt] / IC50 [Akt], Akt1 / Akt2 (Akt1; biochemical activity based assay, log units): -1.05
viability at 3 days, 0.0001 µM ([1]; 0.1 nM, read-out: cell viability): 100%
viability at 3 days, 5 µM ([1]; 5000 nM): 106%
cell viability (parental Ba/F3 cells; 0.1 nM, single replicates, 0.0001 µM): 107.4 % of control and 103.8 % of control
cell viability (parental Ba/F3 cells; 5000 nM, single replicates, 5 µM): 99.2 % of control and 101.9 % of control
EC50 (parental Ba/F3 cells; Mus musculus, BaF3, parental cells, mean of replicates, read-out: CTG BaF3, Mean): 6.89 µM
EC50 (parental Ba/F3 cells; Mus musculus, BaF3, parental cells, single replicates, read-out: CTG BaF3, individual determinations): 7.69 µM
EC50 (parental Ba/F3 cells; parental cells, single replicates, read-out: CTG BaF3, individual determinations): 6.99 µM and 6 µM
cell viability (Ba/F3^myr-Akt1 cells; myr-Akt1, 0.1 nM, single replicates, 0.0001 µM): 91.2 % of control and 96.3 % of control
cell viability (Ba/F3^myr-Akt1 cells; myr-Akt1, 5000 nM, single replicates, 5 µM): 6.7 % of control and 13.9 % of control and 18.5 % of control
EC50 (Ba/F3^myr-Akt1 cells; Mus musculus, read-out: CTG BaF3myr-Akt1, Mean, mean of replicates): 1.79 µM
viability at 0.0001 µM (Ba/F3^myr-Akt1 cells; Mus musculus, read-out: cell viability, CTG, myr-Akt1, 0.1 nM, single replicates): 85.5%
Log ratio EC50 [Akt] / EC50 [Akt], Akt1 / Akt2 (Ba/F3^myr-Akt1 cells; [2]): -0.40
EC50 (Ba/F3^myr-Akt1 cells; read-out: CTG BaF3myr-Akt1, individual determinations, single replicates): 1.19 µM and 1.5 µM and 2.67 µM
